Here are results for two molecules from patent US10624836B2, “Essential oil of achillea as anti-ageing agent” (L'OREAL, priority 2013, dated 2020).

Assay [1] has as its system epidermis of a Realskin™ reconstructed skin. Kind of assay: Intra-tissue glutathione (GSH) level in reconstructed skin, LC/MS of GS-NEM. The assay is classed as cell-based. To be noted: lipoic acid 250 μmol·l^−1; 16 h at 37° C.; positive control. On the procedure: For this, the GSH level was measured in the epidermis of a Realskin™ reconstructed skin which was: • nontreated (control), • treated with essential oil of Achillea at 0.01% by volume, or • treated with lipoic acid at 250 μmol·l^−1 (positive control).
The reconstructed tissue model kits are conditioned for transport on agar medium. Upon arrival, the tissues were reconditioned in a maintenance medium for a minimum of 16 h at 37° C. in a moisture-saturated atmosphere enriched with 5% CO2. The same medium was used for the incubations in the presence of the substrate.
The various solutions (2 ml) (of essential oil of Achillea at 0.01% by volume and of lipoic acid at […]) were deposited in the wells underneath the skins in order to diffuse through said skins more easily by capillary action. The tissues were then incubated in an incubator at 37° C. for 16 h.
The tissues were ground by means of a Potter grinder in […] of a solution of N-ethylmaleimide (NEM) at 2.5 mmol·l^−1 (excess of NEM). The Potter grinder was then washed with […] of ultrapure water, and 500 μl of 2% formic acid were added. The samples were then centrifuged for 15 minutes at 6000 rpm and at 4° C.
In order to assay the glutathione coupled to the NEM (GS-NEM), […] of the supernatant is diluted in 975 μl of 1% formic acid (1/40) in a 1 ml vial. […]

The test system of assay [2] is primary normal human keratinocytes. Kind of assay: Collagen IV production by keratinocytes, in situ immunolabelling and image analysis. The assay is classed as cell-based. To be noted: TGF-β tested at 10 ng/ml; 72 hours at 37° C.; positive control. Here is the method: The keratinocytes were seeded into and cultured in culture medium for 24 hours.
The culture medium (2.5 ml) was then replaced: • either with test medium containing TGF-β (Transforming Growth Factor β) at 10 ng/ml (positive control), • or with test medium containing the essential oil of Example 1 at 0.003% by volume, • or with the same culture medium (control).
The cells were then incubated for 72 hours at 37° C.
The culture medium was removed and the cells were rinsed, fixed and permeabilized. They were then labelled with an Anti-Collagen IV primary antibody sold by Abcam (reference: Ab6586) directed against the protein of interest (collagen IV). This antibody was visualized with an Alexa Fluor® 488 Goat Anti-Rabbit IgG (H+L) secondary antibody sold by Invitrogen (reference: A11008) coupled to a fluorochrome (GAR-Alexa 488). In parallel, the nuclei of the cells were stained with Hoechst 33258 (bisbenzimide).
The image acquisition was carried out with an INCellAnalyzer™1000 (GE Healthcare) high-resolution imaging system. For each well, 5 digitized images were acquired.
The labellings were quantified by measuring the fluorescence intensity of the proteins relative to the number of nuclei identified by the Hoechst product (integration of the digital data using the Developer Toolbox 1.5 software, GE Healthcare).

On to `O=C(O)CCCC[C@@H]1CCSS1` (racemic) [lipoic acid], for which, in assay [1], the “increase in the GSH level relative to the nontreated tissues” value is on record as 52.0+/−12.7%.

With TGF-β, the “collagen IV production by the keratinocytes, relative to the control” value in assay [2] is 594%.
